Assay results taken from US9938261B2, “Heterocyclic compounds and methods of use thereof” (AMBIT BIOSCIENCES CORPORATION, priority 2011, dated 2018).

Experiments:
[1] = target: CSF1R (Homo sapiens, UniProt P07333); test: HEK293 CSF1R phosphorylation MSD assay; type: cell-based; parameters: expressed in transfected cells; host or cells: HEK293; settings: HEK293 cells, M-CSF stimulated CSF1R phosphorylation, MSD; read-out: HEK293 pCSF1R M-CSF MSD:IC50
Procedure, shortened: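 HEK293 cells expressing CSF1R-FKBP were pretreated 2 h at 37° C with 9 half-log concentrations of compound (0.5% DMSO final), then stimulated 5 min with 50 ng/mL human M-CSF. Lysates captured on biotin-FK506 plates; phosphotyrosine detected by MSD electrochemiluminescence. IC50 versus DMSO, averaged from duplicate plates.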

[2] = target: T1, FLT3 (Homo sapiens, UniProt P36888); test: Competition binding assay, FLT3 Kd; settings: competition binding
T1 construct: made in house
T1 sequence (P36888 27-993): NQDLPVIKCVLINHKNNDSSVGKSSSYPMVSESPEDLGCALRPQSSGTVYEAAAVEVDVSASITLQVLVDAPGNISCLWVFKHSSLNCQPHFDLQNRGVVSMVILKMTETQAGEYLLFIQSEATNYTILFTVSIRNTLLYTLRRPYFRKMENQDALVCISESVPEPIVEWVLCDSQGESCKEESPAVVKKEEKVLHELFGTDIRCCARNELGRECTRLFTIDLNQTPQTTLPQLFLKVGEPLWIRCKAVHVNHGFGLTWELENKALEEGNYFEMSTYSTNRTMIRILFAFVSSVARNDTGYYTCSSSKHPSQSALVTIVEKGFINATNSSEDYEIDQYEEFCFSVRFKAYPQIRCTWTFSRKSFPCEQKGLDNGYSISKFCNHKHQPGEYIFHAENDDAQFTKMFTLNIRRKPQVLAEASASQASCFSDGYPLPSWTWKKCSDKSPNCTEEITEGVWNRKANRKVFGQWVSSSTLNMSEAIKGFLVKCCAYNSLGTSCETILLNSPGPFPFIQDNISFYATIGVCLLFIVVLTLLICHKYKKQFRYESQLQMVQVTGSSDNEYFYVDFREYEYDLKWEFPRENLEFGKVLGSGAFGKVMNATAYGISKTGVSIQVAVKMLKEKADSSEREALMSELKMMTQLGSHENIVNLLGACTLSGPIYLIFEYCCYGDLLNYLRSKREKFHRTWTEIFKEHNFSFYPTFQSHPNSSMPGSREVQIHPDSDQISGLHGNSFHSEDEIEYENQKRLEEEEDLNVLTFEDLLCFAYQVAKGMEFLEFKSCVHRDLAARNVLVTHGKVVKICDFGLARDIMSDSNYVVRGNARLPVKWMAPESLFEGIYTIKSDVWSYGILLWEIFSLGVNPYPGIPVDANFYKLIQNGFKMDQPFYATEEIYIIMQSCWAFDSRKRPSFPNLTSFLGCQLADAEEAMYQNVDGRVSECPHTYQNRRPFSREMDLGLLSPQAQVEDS
Procedure, shortened: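 Read-out is quantitative PCR of kinase recovered from affinity beads after competition with test compound. Binding reached equilibrium over 1 hour at room temperature; Kd values come from eleven-point threefold serial dilutions.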

CSF1R, sequence (P07333 20-972): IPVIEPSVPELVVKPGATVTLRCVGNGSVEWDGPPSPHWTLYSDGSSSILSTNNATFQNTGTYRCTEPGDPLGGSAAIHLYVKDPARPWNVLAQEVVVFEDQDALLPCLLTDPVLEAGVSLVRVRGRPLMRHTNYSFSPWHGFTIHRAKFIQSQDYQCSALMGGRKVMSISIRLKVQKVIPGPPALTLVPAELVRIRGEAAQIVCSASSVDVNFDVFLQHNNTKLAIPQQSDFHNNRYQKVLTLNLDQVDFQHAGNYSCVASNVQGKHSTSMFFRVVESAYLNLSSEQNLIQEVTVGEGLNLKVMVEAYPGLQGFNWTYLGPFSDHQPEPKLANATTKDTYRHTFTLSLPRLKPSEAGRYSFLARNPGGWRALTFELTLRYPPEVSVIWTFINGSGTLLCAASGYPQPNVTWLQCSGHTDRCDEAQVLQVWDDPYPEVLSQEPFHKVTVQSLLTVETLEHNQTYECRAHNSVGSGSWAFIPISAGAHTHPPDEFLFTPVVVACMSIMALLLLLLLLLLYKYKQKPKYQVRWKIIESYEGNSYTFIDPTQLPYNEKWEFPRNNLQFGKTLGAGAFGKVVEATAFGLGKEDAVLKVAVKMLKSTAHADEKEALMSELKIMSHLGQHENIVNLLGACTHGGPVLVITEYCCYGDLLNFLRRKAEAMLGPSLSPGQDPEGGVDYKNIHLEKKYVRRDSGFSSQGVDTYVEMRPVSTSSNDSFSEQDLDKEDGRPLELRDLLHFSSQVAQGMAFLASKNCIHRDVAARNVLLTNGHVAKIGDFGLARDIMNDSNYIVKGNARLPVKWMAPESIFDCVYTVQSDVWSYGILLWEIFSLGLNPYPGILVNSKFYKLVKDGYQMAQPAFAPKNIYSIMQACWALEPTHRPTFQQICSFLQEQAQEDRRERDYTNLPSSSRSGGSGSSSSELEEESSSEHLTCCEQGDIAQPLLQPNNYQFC

Row | SMILES | IC50 [1] [nM] | Kd [2] [nM]
1 | O[C@H]1CC[C@H](Nc2nc3ccc(Cn4cnc5cc(F)cnc54)cc3s2)CC1 [Example 163, trans-4-((6-((6-fluoro-3H-imidazo[4,5-b]pyridin-3-yl)methyl)benzo[d]thiazol-2-yl)amino)cyclohexanol] | > 500 | > 5000
2 | O[C@@H]1CCCC[C@H]1Nc1nc2ccc(Cn3cnc4cccnc43)c(F)c2s1 [Example 164, (1R,2R)-2-((6-((3H-imidazo[4,5-b]pyridin-3-yl)methyl)-7-fluorobenzo[d]thiazol-2-yl)amino)cyclohexanol] | > 500 | 1000 to 5000
3 | COc1ccc2ncc(Cc3ccc4nc(N[C@@H]5CCCC[C@H]5O)sc4c3)n2c1 [Example 165, (1R,2R)-2-((6-((6-methoxyimidazo[1,2-a]pyridin-3-yl)methyl)benzo[d]thiazol-2-yl)amino)cyclohexanol] | > 500 | > 5000
4 | O[C@@H]1CCCC[C@H]1Nc1nc2c(Br)cc(Cn3cnc4cccnc43)cc2s1 [Example 166, (1R,2R)-2-((6-((3H-imidazo[4,5-b]pyridin-3-yl)methyl)-4-bromobenzo[d]thiazol-2-yl)amino)cyclohexanol] | > 500 | 200 to 1000
5 | O[C@@H]1CCCC[C@H]1Nc1nc2ccc(Cc3cnc4cc(-n5cccn5)ccn34)cc2s1 [Example 167, (1R,2R)-2-((6-((7-(1H-pyrazol-1-yl)imidazo[1,2-a]pyridin-3-yl)methyl)benzo[d]thiazol-2-yl)amino)cyclohexanol] | ≤ 50 | 1000 to 5000
6 | O[C@@H]1CCCC[C@H]1Nc1nc2c(F)cc(Cn3cnc4cccnc43)c(F)c2s1 [Example 168, (1R,2R)-2-((6-((3H-imidazo[4,5-b]pyridin-3-yl)methyl)-4,7-difluorobenzo[d]thiazol-2-yl)amino)cyclohexanol] | > 500 | 1000 to 5000
7 | O[C@@H]1CCCC[C@H]1Nc1nc2ccc(Cc3cnc4cc(-n5cncn5)ccn34)cc2s1 [Example 169, (1R,2R)-2-((6-((7-(1H-1,2,4-triazol-1-yl)imidazo[1,2-a]pyridin-3-yl)methyl)benzo[d]thiazol-2-yl)amino)cyclohexanol] | 50 to 200 | 1000 to 5000
8 | N#Cc1ccc2c(c1)ncn2Cc1ccc2nc(N[C@@H]3CCCC[C@H]3O)oc2c1 [Example 170, 1-((2-(((1R,2R)-2-hydroxycyclohexyl)amino)benzo[d]oxazol-6-yl)methyl)-1H-benzo[d]imidazole-5-carbonitrile] | > 500 | > 5000
9 | O[C@@H]1CCCC[C@H]1Nc1nc2ccc(Cn3cnc4cc(OCCN5CCOCC5)ccc43)cc2s1 [Example 171, (1R,2R)-2-((6-((5-(2-morpholinoethoxy)-1H-benzo[d]imidazol-1-yl)methyl)benzo[d]thiazol-2-yl)amino)cyclohexanol] | ≤ 50 | 200 to 1000
10 | Fc1cnc2c(c1)ncn2Cc1ccc2nc(N[C@H]3C=CCCC3)sc2c1 [Example 176, (R)—N-(cyclohex-2-en-1-yl)-6-((6-fluoro-3H-imidazo[4,5-b]pyridin-3-yl)methyl)benzo[d]thiazol-2-amine] | 200 to 500 | 1000 to 5000
11 | N#Cc1ccc2ncc(Cc3ccc4nc(N[C@@H]5CCCC[C@H]5O)sc4c3)n2n1 [Example 221, 3-((2-(((1R,2R)-2-hydroxycyclohexyl)amino)benzo[d]thiazol-6-yl)methyl)imidazo[1,2-b]pyridazine-6-carbonitrile] | ≤ 50 | ≤ 200
12 | O=c1c(N2CCOCC2)nccn1Cc1ccc2nc(N[C@@H]3CCCC[C@H]3O)sc2c1 [Example 222, 1-((2-(((1R,2R)-2-hydroxycyclohexyl)amino)benzo[d]thiazol-6-yl)methyl)-3-morpholinopyrazin-2(1H)-one] | > 500 | > 5000
13 | O=C(c1ccn2c(Cc3ccc4nc(N[C@@H]5CCCC[C@H]5O)sc4c3)cnc2c1)N1CCCC1 [Example 223, (3-((2-(((1R,2R)-2-hydroxycyclohexyl)amino)benzo[d]thiazol-6-yl)methyl)imidazo[1,2-a]pyridin-7-yl)(pyrrolidin-1-yl)methanone] | 50 to 200 | 1000 to 5000
14 | O[C@H]1[C@@H](O)CCC[C@H]1Nc1nc2ccc(Cn3cnc4cc(F)cnc43)cc2s1 [Example 228, (1S,2R,3R)-3-((6-((6-fluoro-3H-imidazo[4,5-b]pyridin-3-yl)methyl)benzo[d]thiazol-2-yl)amino)cyclohexane-1,2-diol] | > 500 | > 5000
15 | O[C@@H]1[C@H](O)CCC[C@H]1Nc1nc2ccc(Cc3cnc4cc(-n5cccn5)ccn34)cc2s1 [Example 229, (1R,2S,3R)-3-((6-((7-(1H-pyrazol-1-yl)imidazo[1,2-a]pyridin-3-yl)methyl)benzo[d]thiazol-2-yl)amino)cyclohexane-1,2-diol] | ≤ 50 | 200 to 1000
16 | O[C@@H]1[C@H](O)CCC[C@H]1Nc1nc2ccc(Cc3cnc4cc(-n5nccn5)ccn34)cc2s1 [Example 231, (1R,2S,3R)-3-((6-((7-(2H-1,2,3-triazol-2-yl)imidazo[1,2-a]pyridin-3-yl)methyl)benzo[d]thiazol-2-yl)amino)cyclohexane-1,2-diol] | ≤ 50 | 1000 to 5000

Continued, values first:

Row | IC50 [1] [nM] | Kd [2] [nM] | SMILES
17 | 50 to 200 | 1000 to 5000 | O[C@H]1CCCC[C@H]1Nc1nc2ccc(Cn3cnc4cc(F)cnc43)cc2s1 [Example 162, (1S,2R)-2-((6-((6-fluoro-3H-imidazo[4,5-b]pyridin-3-yl)methyl)benzo[d]thiazol-2-yl)amino)cyclohexanol]
18 | ≤ 50 | 200 to 1000 | OCCOc1ccc2c(c1)ncn2Cc1ccc2nc(N[C@@H]3CCCC[C@H]3O)sc2c1 [Example 172, (1R,2R)-2-((6-((5-(2-hydroxyethoxy)-1H-benzo[d]imidazol-1-yl)methyl)benzo[d]thiazol-2-yl)amino)cyclohexanol]
19 | 50 to 200 | 200 to 1000 | CNC(=O)c1ccc2c(c1)ncn2Cc1ccc2nc(N[C@@H]3CCCC[C@H]3O)sc2c1 [Example 173, 1-((2-(((1R,2R)-2-hydroxycyclohexyl)amino)benzo[d]thiazol-6-yl)methyl)-N-methyl-1H-benzo[d]imidazole-5-carboxamide]
20 | 50 to 200 | 200 to 1000 | C=C(c1ccc2c(c1)ncn2Cc1ccc2nc(N[C@@H]3CCCC[C@H]3O)sc2c1)C(F)(F)F [Example 175, (1R,2R)-2-((6-((5-(3,3,3-trifluoroprop-1-en-2-yl)-1H-benzo[d]imidazol-1-yl)methyl)benzo[d]thiazol-2-yl)amino)cyclohexanol]
21 | > 500 | 200 to 1000 | O=C(O)/C=C/c1ccc2c(c1)ncn2Cc1ccc2nc(N[C@@H]3CCCC[C@H]3O)sc2c1 [Example 224, (E)-3-(1-((2-(((1R,2R)-2-hydroxycyclohexyl)amino)benzo[d]thiazol-6-yl)methyl)-1H-benzo[d]imidazol-5-yl)acrylic acid]
22 | ≤ 50 | 200 to 1000 | O[C@@H]1CCCC[C@H]1Nc1nc2ccc(Cn3cnc4cc(-n5ccnc5)ccc43)cc2s1 [Example 226, (1R,2R)-2-((6-((5-(1H-imidazol-1-yl)-1H-benzo[d]imidazol-1-yl)methyl)benzo[d]thiazol-2-yl)amino)cyclohexanol]
23 | ≤ 50 | 1000 to 5000 | Cn1nnc(-c2ccc3c(c2)ncn3Cc2ccc3nc(N[C@@H]4CCCC[C@H]4O)sc3c2)n1 [Example 227, (1R,2R)-2-((6-((5-(2-methyl-2H-tetrazol-5-yl)-1H-benzo[d]imidazol-1-yl)methyl)benzo[d]thiazol-2-yl)amino)cyclohexanol]
24 | ≤ 50 | ≤ 200 | C=Cc1ccc2c(c1)ncn2Cc1ccc2nc(N[C@@H]3CCC[C@@H](O)[C@H]3O)sc2c1 [Example 232, (1R,2S,3R)-3-((6-((5-vinyl-1H-benzo[d]imidazol-1-yl)methyl)benzo[d]thiazol-2-yl)amino)cyclohexane-1,2-diol]
25 | ≤ 50 | 200 to 1000 | O[C@@H]1[C@H](O)CCC[C@H]1Nc1nc2ccc(Cn3cnc4cc(OC5COC5)ccc43)cc2s1 [Example 233, (1R,2S,3R)-3-((6-((5-(oxetan-3-yloxy)-1H-benzo[d]imidazol-1-yl)methyl)benzo[d]thiazol-2-yl)amino)cyclohexane-1,2-diol]
